Reference: patent publication US10568876B2, “Tetrahydroisoquinoline derivatives useful as inhibitors of diacylglyceride O-acyltransferase 2” (Merck Sharp & Dohme Corp., priority 2014, dated 2020)
pIC50: −log10 of the molar value.

Molecular target: hDGAT2 (Homo sapiens (Human), UniProt Q96PD7)
Assay: DGAT2 Enzymatic Activity Assay
Type: biochemical
Conditions: hDGAT2 Sf-9 membrane prep; 25 μM diolein, 10 μM oleoyl-CoA; triolein product by LC/MS/MS; read-out: IC50 values for inhibition of DGAT2
Summary of the method: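 Membranes from Sf-9 cells expressing untagged hDGAT2 (10 ng/μL) incubated at room temperature with 25 μM diolein and 10 μM oleoyl-CoA in 100 mM Tris pH 7.0, 20 mM MgCl2, 5% ethanol. Triolein product quantified by LC/MS/MS against spiked internal standard; IC50 from 4-parameter sigmoidal fit.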

Chain of hDGAT2 (Q96PD7 whole entry): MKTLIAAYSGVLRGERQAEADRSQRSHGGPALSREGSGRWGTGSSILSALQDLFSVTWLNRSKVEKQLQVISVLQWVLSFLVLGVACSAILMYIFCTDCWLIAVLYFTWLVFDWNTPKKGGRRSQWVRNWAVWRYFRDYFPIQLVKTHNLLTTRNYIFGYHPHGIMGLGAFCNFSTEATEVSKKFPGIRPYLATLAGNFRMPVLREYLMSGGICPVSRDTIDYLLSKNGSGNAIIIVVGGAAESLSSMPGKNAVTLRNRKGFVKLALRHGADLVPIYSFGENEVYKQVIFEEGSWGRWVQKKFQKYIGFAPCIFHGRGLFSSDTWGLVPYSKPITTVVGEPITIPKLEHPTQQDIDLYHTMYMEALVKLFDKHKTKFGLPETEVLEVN

| pIC50 | SMILES |
| --- | --- |
| 5.60 | COC(=O)c1cccc(-c2ccc(CNC(=O)C3CC3c3ccccc3)c3c2CCN(C(=O)c2ccncc2)C3)c1 (stereo not shown) [Example 133, methyl 3-(2-isonicotinoyl-8-((2-phenylcyclopropanecarboxamido)methyl)-1,2,3,4-tetrahydroisoquinolin-5-yl)benzoate] |
| 6.09 | COc1cccc(-c2ccc(CNC(=O)[C@@H]3C[C@H]3c3ccccc3)c3c2CCN(C(=O)N2CCOCC2)C3)c1 (relative stereo) [Example 62, (trans)-N-((5-(3-methoxyphenyl)-2-(morpholine-4-carbonyl)-1,2,3,4-tetrahydroisoquinolin-8-yl)methyl)-2-phenylcyclopropanecarboxamide] |
| 5.94 | COc1cccc(-c2ccc(CNC(=O)[C@H]3C[C@@H]3c3ccccc3)c3c2CCN(Cc2cc(F)cc(F)c2)C3)c1 (relative stereo) [Example 92, (trans)-N-((2-(3,5-difluorobenzyl)-5-(3 methoxyphenyl)-1,2,3,4-tetrahydroisoquinolin-8-yl)methyl)-2-phenylcyclopropanecarboxamide] |
| 6.32 | Cc1noc(C2CC2C(=O)NCc2ccc(-c3cccc(OC(F)(F)F)c3)c3c2CN(CC(=O)NC(C)(C)C)CC3)n1 (stereo not shown) [Example 80, N-((2-(2-(tert-butylamino)-2-oxoethyl)-5-(3-(trifluoromethoxy)phenyl)-1,2,3,4-tetrahydroisoquinolin-8-yl)methyl)-2-(3-methyl-1,2,4-oxadiazol-5-yl)cyclopropanecarboxamide] |
| 6.84 | COc1cccc(-c2ccc(CNC(=O)[C@@H]3C[C@H]3c3nc(C)no3)c3c2CCN(C(=O)Nc2ccon2)C3)c1 (relative stereo) [Example 25, N-(isoxazol-3-yl)-5-(3-methoxyphenyl)-8-(((trans)-2-(3-methyl-1,2,4-oxadiazol-5-yl)cyclopropanecarboxamido)methyl)-3,4-dihydroisoquinoline-2(1H)-carboxamide] |
| 6.63 | CCC(C)CNC(=O)N1CCc2c(-c3cccc(OC)c3)ccc(CNC(=O)[C@@H]3C[C@H]3c3ccccc3)c2C1 (relative stereo) [Example 75, 5-(3-methoxyphenyl)-N-(2-methylbutyl)-8-(((trans)-2-phenylcyclopropanecarboxamido)methyl)-3,4-dihydroisoquinoline-2(1H)-carboxamide] |
| 7.94 | CC(C)(C)NC(=O)N1CCc2c(-c3cccc(-n4ccnn4)c3)ccc(CNC(=O)[C@@H]3C[C@H]3c3ccccc3)c2C1 (relative stereo) [Example 5, 5-(3-(1H-1,2,3-triazol-1-yl)phenyl)-N-(tert-butyl)-8-(((trans)-2-phenylcyclopropanecarboxamido)methyl)-3,4-dihydroisoquinoline-2(1H)-carboxamide] |
| 5.35 | Cc1noc([C@@H]2C[C@H]2C(=O)NCc2ccc(-c3cccc(OC(F)(F)F)c3)c3c2CN(Cc2noc(C4CC4)n2)CC3)n1 (relative stereo) [Example 101, (trans)-N-((2-((5-cyclopropyl-1,2,4-oxadiazol-3-yl)methyl)-5-(3-(trifluoromethoxy)phenyl)-1,2,3,4-tetrahydroisoquinolin-8-yl)methyl)-2-(3-methyl-1,2,4-oxadiazol-5-yl)cyclopropanecarboxamide] |
| 7.81 | COC(=O)c1cccc(-c2ccc(CNC(=O)C3CC3c3nc(C)no3)c3c2CCN(C(=O)NC(C)(C)C)C3)c1 (stereo not shown) [Example 7, methyl 3-(2-(tert-butylcarbamoyl)-8-((2-(3-methyl-1,2,4-oxadiazol-5-yl)cyclopropanecarboxamido)methyl)-1,2,3,4-tetrahydroisoquinolin-5-yl)benzoate] |
| 8.44 | Cc1noc([C@@H]2C[C@H]2C(=O)NCc2ccc(-c3cccc(OC(F)(F)F)c3)c3c2CN(C(=O)NC(C)(C)C)CC3)n1 (relative stereo) [Example 12, N-(tert-butyl)-8-(((trans)-2-(3-methyl-1,2,4-oxadiazol-5-yl)cyclopropanecarboxamido)methyl)-5-(3-(trifluoromethoxy)phenyl)-3,4-dihydroisoquinoline-2(1H)-carboxamide] |
| 5.81 | COc1cccc(-c2ccc(CNC(=O)[C@@H]3C[C@H]3c3ccccc3)c3c2CCN(C(=O)C(O)C(F)(F)F)C3)c1 (relative stereo) [Example 119, (trans)-N-((5-(3-methoxyphenyl)-2-(3,3,3-trifluoro-2-hydroxypropanoyl)-1,2,3,4-tetrahydroisoquinolin-8-yl)methyl)-2-phenylcyclopropanecarboxamide] |
| 7.00 | Cc1noc([C@@H]2C[C@H]2C(=O)NCc2ccc(-c3cccc(C(F)(F)F)c3)c3c2CN(C(=O)Nc2cccnc2)CC3)n1 (relative stereo) [Example 6, 8-(((trans)-2-(3-methyl-1,2,4-oxadiazol-5-yl)cyclopropanecarboxamido)methyl)-N-(pyridin-3-yl)-5-(3-(trifluoromethyl)phenyl)-3,4-dihydroisoquinoline-2(1H)-carboxamide] |
| 7.86 | COc1cccc(-c2ccc(CNC(=O)[C@@H]3C[C@H]3c3ccccc3)c3c2CCN(C(=O)NC2(C)COC2)C3)c1 (relative stereo) [Example 68, 5-(3-methoxyphenyl)-N-(3-methyloxetan-3-yl)-8-(((trans)-2-phenylcyclopropanecarboxamido)methyl)-3,4-dihydroisoquinoline-2(1H)-carboxamide] |
| 6.76 | CC(C)(C)NC(=O)N1CCc2c(-c3cncc(C(F)(F)F)c3)ccc(CNC(=O)[C@@H]3C[C@H]3c3ccccc3)c2C1 (relative stereo) [Example 47, N-(tert-butyl)-8-(((trans)-2-phenylcyclopropanecarboxamido)methyl)-5-(5-(trifluoromethyl)pyridin-3-yl)-3,4-dihydroisoquinoline-2(1H)-carboxamide] |
| 5.26 | COC(=O)c1cccc(-c2ccc(CNC(=O)C3CC3c3ccccc3)c3c2CCN(C(=O)c2cnoc2C(C)C)C3)c1 (stereo not shown) [Example 122, methyl 3-(2-(5-isopropylisoxazole-4-carbonyl)-8-((2-phenylcyclopropanecarboxamido)methyl)-1,2,3,4-tetrahydroisoquinolin-5-yl)benzoate] |
| 5.12 | Cc1noc(C2CC2C(=O)NCc2ccc(-c3cccc(OC(F)(F)F)c3)c3c2CN(CC(=O)N[C@H](C)c2ccccc2)CC3)n1 (stereo partly drawn) [Example 88, 2-(3-methyl-1,2,4-oxadiazol-5-yl)-N-((2-(2-oxo-2-(((trans)-1-phenylethyl)amino)ethyl)-5-(3-(trifluoromethoxy)phenyl)-1,2,3,4-tetrahydroisoquinolin-8-yl)methyl)cyclopropanecarboxamide] |
| 5.13 | CC(C)(C)NC(=O)N1CCc2c(-c3cccc4c3CNC4=O)ccc(CNC(=O)[C@@H]3C[C@H]3c3ccccc3)c2C1 (relative stereo) [Example 44, N-(tert-butyl)-5-(1-oxoisoindolin-4-yl)-8-(((trans)-2-phenylcyclopropanecarboxamido)methyl)-3,4-dihydroisoquinoline-2(1H)-carboxamide] |
| 6.64 | CCOC(=O)CCCNC(=O)N1CCc2c(-c3cccc(OC)c3)ccc(CNC(=O)[C@@H]3C[C@H]3c3ccccc3)c2C1 (relative stereo) [Example 59, ethyl 4-(5-(3-methoxyphenyl)-8-(((trans)-2-phenylcyclopropanecarboxamido)methyl)-1,2,3,4-tetrahydroisoquinoline-2-carboxamido)butanoate] |
| 5.91 | Cc1noc(C2CC2C(=O)NCc2ccc(-c3cccc(OC(F)(F)F)c3)c3c2CN(CC(N)=O)CC3)n1 (stereo not shown) [Example 83, N-((2-(2-amino-2-oxoethyl)-5-(3-(trifluoromethoxy)phenyl)-1,2,3,4-tetrahydroisoquinolin-8-yl)methyl)-2-(3-methyl-1,2,4-oxadiazol-5-yl)cyclopropanecarboxamide] |
| 5.46 | COC(=O)c1cccc(-c2ccc(CNC(=O)C3CC3c3ccccc3)c3c2CCN(CCC(F)(F)F)C3)c1 (stereo not shown) [Example 100, methyl 3-(8-((2-phenylcyclopropanecarboxamido)methyl)-2-(3,3,3-trifluoropropyl)-1,2,3,4-tetrahydroisoquinolin-5-yl)benzoate] |
| 5.32 | CC(C)(C)NC(=O)N1CCc2c(-c3cnn(Cc4ccccc4)c3)ccc(CNC(=O)[C@@H]3C[C@H]3c3ccccc3)c2C1 (relative stereo) [Example 40, 5-(1-benzyl-1H-pyrazol-4-yl)-N-(tert-butyl)-8-(((trans)-2-phenylcyclopropanecarboxamido)methyl)-3,4-dihydroisoquinoline-2(1H)-carboxamide] |
| 5.39 | COc1cccc(-c2ccc(CNC(=O)[C@H]3C[C@@H]3c3ccccc3)c3c2CCN(c2nccc(C(F)(F)F)n2)C3)c1 (relative stereo) [Example 109, (trans)-N-((5-(3-methoxyphenyl)-2-(4-(trifluoromethyl)pyrimidin-2-yl)-1,2,3,4-tetrahydroisoquinolin-8-yl)methyl)-2-phenylcyclopropanecarboxamide] |
| 8.66 | COC(=O)c1cccc(-c2ccc(CNC(=O)C3CC34CCCCC4)c3c2CCN(C(=O)NC(C)(C)C)C3)c1 (stereo not shown) [Example 17, methyl 3-(2-(tert-butylcarbamoyl)-8-((spiro[2.5]octane-1-carboxamido)methyl)-1,2,3,4-tetrahydroisoquinolin-5-yl)benzoate] |
| 5.88 | COC(=O)c1cccc(-c2ccc(CNC(=O)C3CC3c3ccccc3)c3c2CCN(C(=O)C2(C(F)(F)F)CC2)C3)c1 (stereo not shown) [Example 123, methyl 3-(8-((2-phenylcyclopropanecarboxamido)methyl)-2-(1-(trifluoromethyl)cyclopropanecarbonyl)-1,2,3,4-tetrahydroisoquinolin-5-yl)benzoate] |
| 7.02 | CC(C)Cn1cc(-c2ccc(CNC(=O)[C@@H]3C[C@H]3c3ccccc3)c3c2CCN(C(=O)NC(C)(C)C)C3)cn1 (relative stereo) [Example 37, N-(tert-butyl)-5-(1-isobutyl-1H-pyrazol-4-yl)-8-(((trans)-2-phenylcyclopropanecarboxamido)methyl)-3,4-dihydroisoquinoline-2(1H)-carboxamide] |
